System: MDS patients
Assay: Clinical hematological response of MDS patients treated with Rigosertib
Assay type: in vivo, human
Conditions: number of patients of 32 MDS patients
Source text: As used herein, “response” is defined by standard clinical criteria, importantly including amelioration of transfusion-dependent anemia, which is a major hallmark of myelodysplastic syndromes (MDS).
This study sought to identify DNA methylation markers that can predict the therapeutic response to a different, and an even more widely pertinent, class of anti-cancer drugs, namely broad-specificity tyrosine kinase inhibitors (TKI's) or a broad specificity kinase inhibitors. As used herein, “response” is defined by standard clinical criteria, importantly including amelioration of transfusion-dependent anemia, which is a major hallmark of myelodysplastic syndromes (MDS).
Pre-therapy bone marrow mononuclear cells from 32 patients were analyzed using the Illumina 450K methylation array platform.
In summary, seven (7) of 32 MDS patients had complete response or CR (Transfusion independence (TI)+increase in hemoglobin (Hb)>2 g/dL), ten (10) had partial response or PR (TI without Hb increase) and fifteen (15) had no response or NR. […] Bisulfite sequencing (which allows quantification of multiple consecutive CpGs in an amplicon) of several differentially methylated loci confirmed the Illumina 450K data.

SMILES: COc1cc(OC)c(/C=C/S(=O)(=O)Cc2ccc(OC)c(NCC(=O)[O-])c2)c(OC)c1.[Na+] [Rigosertib]
- complete response or CR (Transfusion independence (TI)+increase in hemoglobin (Hb)>2 g/dL): 7
- no response or NR: 15
- partial response or PR (TI without Hb increase): 10

— patent publication US20160102363A1, “METHODS AND COMPOSITIONS FOR PREDICTING THERAPEUTIC EFFICACY OF KINASE INHIBITORS IN PATIENTS WITH MYELODYSPLASTIC SYNDROME OR RELATED DISORDERS” (ONCONOVA THERAPEUTICS, INC., priority 2013, published 2016)
